pIC50: −log10 of the molar value. “Also recorded” adds a separate entry of the source. Like-named read-outs stand apart in the source and are kept apart here.
Columns and labels:
PAFAH2 = target: T1, PAFAH2 (Homo sapiens, UniProt Q99487); assay: ADPL quantification of PAFAH2 activity in stable PAFAH2 expressing PC3 cells; assay type: cell-based; settings: same dose-range (0-1 μM)
T1 construct: Full-length, human ESD (NM_001984) and PAFAH2 (NM_000437) in pCMV6 entry vectors with C-terminal Myc-DDK tag
Protocol: (§1) Cells were seeded in the 12-well chamber slide, typically at 10,000-30,000 cells per well (Ibidi, #81201). To get an even distribution of the cells, the chamber slide was pre-wetted with cell culture medium, drained off, and the chamber was left at room temperature for 5-10 min after seeding. Cells at 80-90% confluency were pulse treated with either FP-Bio (2 μM) in DMEM and incubated at 37° C. for 40 min or Capthepsin probe (5 μM) in complete medium and incubated at 37° C. for 3 hr. Cells were washed with PBS, fixed with 4% paraformaldehyde in PBS at room temperature for 15 minutes, washed twice with PBS for 5 minutes each at room temperature with orbital shaking and then permeabilized in 0.5% Triton X-100 in PBS at room temperature for 15 minutes. Finally, cells were washed twice with 0.05% Tween-20 in PBS for 5 minutes each at room temperature with orbital shaking.
Prior to antibody incubation, the chamber was removed and the well boundaries delineated with the hydrophobic barrier pen (Vector laboratories, #H-4000). One-drop Duolink blocking buffer (Sigma, #DUO92004) was added and the slide was incubated at 37° C. for 30 minutes in a humidified chamber. […]

NCEH1 = target: T2, NCEH1 (Homo sapiens, UniProt Q6PIU2); assay: ADPL imaging and quantification of endogenous NCEH1 activity in live cells (inhibitor profiling by ADPL); assay type: cell-based; parameters: endogenous NCEH1 activity in SKOV3 cells; endogenous in cells; host or cells: SKOV3; wild-type PC3; PAFAH2-expressing PC3; settings: for pIC50: inhibitor 4 hr before FP-Bio (2 μM, 40 min), read-out: apparent IC50, inhibition of NCEH1 by ADPL
T2 sequence (Q6PIU2 1-408): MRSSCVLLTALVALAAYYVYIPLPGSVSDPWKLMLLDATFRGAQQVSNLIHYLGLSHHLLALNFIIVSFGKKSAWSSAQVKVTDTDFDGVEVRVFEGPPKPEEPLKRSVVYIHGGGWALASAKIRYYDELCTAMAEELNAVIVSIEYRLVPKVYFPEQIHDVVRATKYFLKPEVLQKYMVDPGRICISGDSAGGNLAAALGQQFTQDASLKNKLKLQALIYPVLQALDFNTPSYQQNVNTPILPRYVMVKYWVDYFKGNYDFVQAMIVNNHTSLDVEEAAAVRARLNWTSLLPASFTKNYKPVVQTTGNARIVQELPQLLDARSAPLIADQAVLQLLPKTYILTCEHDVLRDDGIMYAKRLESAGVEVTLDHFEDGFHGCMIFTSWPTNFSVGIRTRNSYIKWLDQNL
Protocol: as §1
Prior to antibody incubation, the chamber was removed and the well boundaries delineated with the hydrophobic barrier pen (Vector laboratories, #H-4000). One-drop Duolink blocking buffer (Sigma, #DUO92004) was added and the slide was incubated at 37° C. for 30 minutes in a humidified chamber. The blocking solution was removed by tapping, followed by addition of 10 μg/ml of the anti-biotin (rabbit, Abcam, #G196266) and primary antibody for the protein of interest: anti-FLAG (mouse, 4 μg/ml of Sigma, #F1804-5 mg); anti-NCEH1 (mouse, 4 μg/ml of in-house polyclonal), anti-FAAH (mouse, 4 μg/ml of Abcam, #ab54615) for serine hydrolase members. […]
For quantitative analysis single cell boundaries were identified manually using the DIC image. Then the “ROI Manager” tool in Image) was utilized to add all the cell outlines as a collection and overlay with the ADPL channel to measure per-cell fluorescence intensity. Typical quantitative comparisons were made using data from three or more independent fields of view per independent biological replicate condition. […]

Structure (SMILES): CC(C)c1ccccc1OC(=O)NCCc1ccc2ccccc2c1 [JW480]
- effect on PAFAH2 activity (ADPL signal) (PAFAH2): no inhibition of target signal was observed; also recorded: no effect
- pIC50 (NCEH1; PAFAH2 expressing PC3 cells): 8.10
- NCEH1 activity by ADPL imaging and quantification relative to vehicle (NCEH1; SKOV3 cells, 1 μM, 4 hr pre-treatment before FP-Bio): significantly reduced
- pIC50 (NCEH1; wild-type PC3 cells): 8.22

Source: patent publication US12276654B2, “Chemical probe-dependent evaluation of protein activity and uses thereof” (The University of Chicago, priority 2017, dated 2025)
